The record followed here is ChEMBL document CHEMBL5131564, “Discovery of Potent and Selective Receptor-Interacting Serine/Threonine Protein Kinase 2 (RIPK2) Inhibitors for the Treatment of Inflammatory Bowel Diseases (IBDs)” (J Med Chem, 2022).

Activity calls are given as the source filed them. The calls are words filed in the database; no cut-off is given here.

The nature of data set [1]: Cmax in Balb/C mouse at 10 mg/kg, iv measured upto 48 hrs by LC-MS/MS analysis. Type of data set: ADME, organism-based. Also on record: dose 10 mg/kg, time < 48 hrs, route iv. To be noted: in vivo.
Data set [2] deals with Mus musculus. Nature of the data set: Anti-inflammatory activity against DSS-induced acute ulcerative colitis C57BL/6 mouse model assessed as reduction in fecal occult blood at 20 to 40 mg/kg, po once a day measured after 2 days followed by 7 days after DSS treatment. The data set is classed as functional, organism-based. To be noted: dose 20-40 mg/kg, time 2.0 day.
The target in data set [3] is T1, Receptor-interacting serine/threonine-protein kinase 4 (Homo sapiens, UniProt P57078).
T1 sequence (P57078 whole entry): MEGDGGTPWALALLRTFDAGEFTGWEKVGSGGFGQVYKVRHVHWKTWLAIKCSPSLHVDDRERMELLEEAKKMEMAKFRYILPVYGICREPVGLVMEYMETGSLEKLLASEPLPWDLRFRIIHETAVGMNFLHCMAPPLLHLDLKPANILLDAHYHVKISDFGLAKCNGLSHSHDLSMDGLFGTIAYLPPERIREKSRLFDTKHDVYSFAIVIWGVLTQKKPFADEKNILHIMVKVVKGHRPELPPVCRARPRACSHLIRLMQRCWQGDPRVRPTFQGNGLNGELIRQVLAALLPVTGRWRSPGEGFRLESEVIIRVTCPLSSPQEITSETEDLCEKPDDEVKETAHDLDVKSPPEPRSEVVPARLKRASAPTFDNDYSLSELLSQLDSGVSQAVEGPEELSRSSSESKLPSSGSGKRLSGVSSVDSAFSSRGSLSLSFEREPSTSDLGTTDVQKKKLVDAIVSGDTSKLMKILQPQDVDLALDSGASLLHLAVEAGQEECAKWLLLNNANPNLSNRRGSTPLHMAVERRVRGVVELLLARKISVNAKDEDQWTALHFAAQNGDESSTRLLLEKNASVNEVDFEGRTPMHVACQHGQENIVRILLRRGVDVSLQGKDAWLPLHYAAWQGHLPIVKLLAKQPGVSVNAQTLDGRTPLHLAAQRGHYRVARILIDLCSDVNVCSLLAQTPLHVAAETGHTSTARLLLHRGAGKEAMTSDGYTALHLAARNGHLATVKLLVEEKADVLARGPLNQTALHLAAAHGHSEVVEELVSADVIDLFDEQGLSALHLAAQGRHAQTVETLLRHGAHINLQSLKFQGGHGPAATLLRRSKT
The data set is described as follows: Binding affinity to human RIPK4.

The nature of data set [4]: Elimination half life in Balb/C mouse at 10 mg/kg, iv measured upto 48 hrs by LC-MS/MS analysis. The data set is classed as ADME, organism-based. To be noted: in vivo, read-out: beta t1/2 (converted).
Data set [5] has as its target Proto-oncogene tyrosine-protein kinase Src (Homo sapiens, UniProt P12931). The data set is described as follows: Inhibition of human c-SRC by kinase assay.
The nature of data set [6]: Toxicity in rat H9c2 cells assessed as inhibitory rate. Type of data set: cell-based.
Data set [7] deals with Platelet-derived growth factor receptor beta (Homo sapiens, UniProt P09619). The data set is described as follows: Inhibition of human PDGFRbeta by kinase assay.
Chain of Platelet-derived growth factor receptor beta (P09619 whole entry, the tested form may be a part): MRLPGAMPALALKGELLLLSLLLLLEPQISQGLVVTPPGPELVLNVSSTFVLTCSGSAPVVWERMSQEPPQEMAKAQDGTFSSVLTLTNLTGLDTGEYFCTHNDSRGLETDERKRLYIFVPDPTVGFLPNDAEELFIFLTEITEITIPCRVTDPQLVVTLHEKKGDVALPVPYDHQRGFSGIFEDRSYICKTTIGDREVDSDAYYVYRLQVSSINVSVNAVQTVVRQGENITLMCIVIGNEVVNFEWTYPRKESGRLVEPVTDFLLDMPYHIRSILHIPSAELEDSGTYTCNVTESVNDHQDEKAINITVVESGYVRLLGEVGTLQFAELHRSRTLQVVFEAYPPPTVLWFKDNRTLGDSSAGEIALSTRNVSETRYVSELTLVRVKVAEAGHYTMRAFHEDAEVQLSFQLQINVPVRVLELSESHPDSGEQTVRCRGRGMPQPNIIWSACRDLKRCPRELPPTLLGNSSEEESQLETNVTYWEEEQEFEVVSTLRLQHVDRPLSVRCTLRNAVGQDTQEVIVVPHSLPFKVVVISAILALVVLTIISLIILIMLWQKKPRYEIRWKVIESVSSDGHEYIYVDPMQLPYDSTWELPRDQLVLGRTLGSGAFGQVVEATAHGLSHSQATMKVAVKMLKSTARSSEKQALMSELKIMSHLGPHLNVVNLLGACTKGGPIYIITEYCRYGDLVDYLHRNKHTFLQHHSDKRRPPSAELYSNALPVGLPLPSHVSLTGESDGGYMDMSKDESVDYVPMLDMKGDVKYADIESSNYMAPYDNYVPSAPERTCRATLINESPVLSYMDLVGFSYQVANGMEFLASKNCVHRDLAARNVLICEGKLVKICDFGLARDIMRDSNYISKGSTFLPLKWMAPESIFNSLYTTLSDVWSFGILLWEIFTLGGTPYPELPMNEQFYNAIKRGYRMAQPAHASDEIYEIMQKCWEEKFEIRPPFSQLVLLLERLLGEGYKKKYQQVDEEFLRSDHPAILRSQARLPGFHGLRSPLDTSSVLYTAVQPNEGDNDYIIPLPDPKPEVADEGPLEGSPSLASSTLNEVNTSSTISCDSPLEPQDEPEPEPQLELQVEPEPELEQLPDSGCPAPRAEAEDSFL
Data set [8] addresses Epithelial discoidin domain-containing receptor 1 (Homo sapiens, UniProt Q08345). The data set is described as follows: Inhibition of human DDR1 by kinase assay.
The nature of data set [9]: Drug uptake in DSS-induced acute ulcerative colitis C57BL/6 mouse model assessed as drug concentration in colon at 20 mg/kg, po after 8 hrs. Type of data set: ADME, organism-based. To be noted: read-out: Drug uptake.
A short description of data set [10]: Drug uptake in DSS-induced acute ulcerative colitis C57BL/6 mouse model assessed as drug concentration in colon at 20 mg/kg, po after 0.5 hrs. Type of data set: ADME, organism-based. As to conditions: read-out: Drug uptake.
Data set [11] can be described thus: AUC (0 to t) in Balb/C mouse at 10 mg/kg, iv measured upto 48 hrs by LC-MS/MS analysis. Type of data set: ADME, organism-based. As to conditions: in vivo. On the set-up: time < 48 hrs, dose 10 mg/kg, route iv.
For another data set, the system named is BMDM. Nature of the data set: Cytotoxicity against mouse BMDM cells at 62.5 to 250 nM in presence of NOD. To be noted: 0.25 µM, dose 62.5-250 nM. The data set is classed as toxicity, cell-based.
Data set [12] deals with Mus musculus. Nature of the data set: Anti-inflammatory activity against DSS-induced acute ulcerative colitis C57BL/6 mouse model assessed as reduction in watery stools at 20 to 40 mg/kg, po once a day measured after 2 days followed by 7 days after DSS treatment. The data set is classed as functional, organism-based. As to conditions: dose 20-40 mg/kg, time 2.0 day.
Data set [13] can be described thus: Cmax in Balb/C mouse at 10 mg/kg, po measured upto 48 hrs by LC-MS/MS analysis. Type of data set: ADME, organism-based. Also on record: dose 10 mg/kg, time < 48 hrs, route po. To be noted: in vivo.
Data set [14] relates to Mus musculus. Nature of the data set: Anti-inflammatory activity against DSS-induced acute ulcerative colitis C57BL/6 mouse model assessed as reduction in disease severity at 20 to 40 mg/kg, po once a day measured after 2 days followed by 7 days after DSS treatment. Type of data set: functional, organism-based. As to conditions: dose 20-40 mg/kg, time 2.0 day.
Data set [15] is described as follows: Elimination half life in Balb/C mouse at 10 mg/kg, po measured upto 48 hrs by LC-MS/MS analysis. Type of data set: ADME, organism-based. As to conditions: in vivo, read-out: beta t1/2 (converted).
Data set [16] can be described thus: Clearance in Balb/C mouse plasma at 10 mg/kg, iv measured upto 48 hrs by LC-MS/MS analysis. The data set is classed as ADME, organism-based.
Data set [17] is described as follows: Volume of distribution in Balb/C mouse at 10 mg/kg, po measured upto 48 hrs by LC-MS/MS analysis. The data set is classed as ADME, organism-based. As to conditions: in vivo.
A short description of data set [18]: AUC (0 to t) in Balb/C mouse at 10 mg/kg, po measured upto 48 hrs by LC-MS/MS analysis. On the set-up: time < 48 hrs, dose 10 mg/kg, route po. Type of data set: ADME, organism-based. To be noted: in vivo.
Data set [19] addresses Receptor-interacting serine/threonine-protein kinase 3 (Homo sapiens, UniProt Q9Y572). Nature of the data set: Binding affinity to human RIPK3 in human Jurkat cells. Type of data set: cell-based.

Chain of Epithelial discoidin domain-containing receptor 1 (Q08345 whole entry, the tested form may be a part): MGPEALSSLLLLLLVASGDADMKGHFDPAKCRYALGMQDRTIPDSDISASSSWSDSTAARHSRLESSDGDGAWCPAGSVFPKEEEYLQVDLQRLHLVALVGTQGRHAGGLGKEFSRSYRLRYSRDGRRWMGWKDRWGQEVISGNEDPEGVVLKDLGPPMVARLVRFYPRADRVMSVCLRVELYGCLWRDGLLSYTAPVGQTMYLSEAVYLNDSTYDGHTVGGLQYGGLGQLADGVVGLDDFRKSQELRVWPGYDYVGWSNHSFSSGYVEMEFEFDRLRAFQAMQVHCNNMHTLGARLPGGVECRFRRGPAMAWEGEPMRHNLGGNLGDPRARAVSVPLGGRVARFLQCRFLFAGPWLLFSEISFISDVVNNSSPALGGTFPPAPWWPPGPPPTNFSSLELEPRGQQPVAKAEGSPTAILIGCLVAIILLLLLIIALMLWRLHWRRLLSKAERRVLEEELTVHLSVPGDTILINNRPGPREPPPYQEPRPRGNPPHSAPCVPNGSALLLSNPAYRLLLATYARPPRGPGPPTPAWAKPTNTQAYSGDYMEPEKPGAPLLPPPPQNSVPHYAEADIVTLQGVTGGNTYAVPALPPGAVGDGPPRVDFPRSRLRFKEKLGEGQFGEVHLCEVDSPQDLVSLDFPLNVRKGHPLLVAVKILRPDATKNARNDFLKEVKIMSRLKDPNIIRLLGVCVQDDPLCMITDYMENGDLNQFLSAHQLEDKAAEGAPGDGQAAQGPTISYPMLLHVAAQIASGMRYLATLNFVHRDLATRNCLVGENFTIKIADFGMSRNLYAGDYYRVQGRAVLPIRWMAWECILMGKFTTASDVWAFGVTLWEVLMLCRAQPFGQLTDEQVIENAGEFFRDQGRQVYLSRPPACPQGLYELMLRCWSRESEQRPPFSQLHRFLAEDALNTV
Chain of Receptor-interacting serine/threonine-protein kinase 3 (Q9Y572 whole entry): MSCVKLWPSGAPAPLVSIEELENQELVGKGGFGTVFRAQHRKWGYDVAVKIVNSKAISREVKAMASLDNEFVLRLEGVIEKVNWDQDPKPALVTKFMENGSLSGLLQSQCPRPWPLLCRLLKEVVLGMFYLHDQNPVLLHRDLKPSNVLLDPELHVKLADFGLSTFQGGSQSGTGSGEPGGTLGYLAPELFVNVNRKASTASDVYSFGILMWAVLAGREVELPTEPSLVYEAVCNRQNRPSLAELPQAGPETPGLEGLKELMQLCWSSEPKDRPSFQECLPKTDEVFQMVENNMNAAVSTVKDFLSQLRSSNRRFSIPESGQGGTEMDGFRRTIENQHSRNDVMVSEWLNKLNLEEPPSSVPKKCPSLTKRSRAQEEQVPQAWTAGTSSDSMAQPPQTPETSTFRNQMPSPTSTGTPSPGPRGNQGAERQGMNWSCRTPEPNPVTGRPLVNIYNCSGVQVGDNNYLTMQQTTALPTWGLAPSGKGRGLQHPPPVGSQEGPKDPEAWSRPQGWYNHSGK
Chain of Proto-oncogene tyrosine-protein kinase Src (P12931 2-536 limits assumed): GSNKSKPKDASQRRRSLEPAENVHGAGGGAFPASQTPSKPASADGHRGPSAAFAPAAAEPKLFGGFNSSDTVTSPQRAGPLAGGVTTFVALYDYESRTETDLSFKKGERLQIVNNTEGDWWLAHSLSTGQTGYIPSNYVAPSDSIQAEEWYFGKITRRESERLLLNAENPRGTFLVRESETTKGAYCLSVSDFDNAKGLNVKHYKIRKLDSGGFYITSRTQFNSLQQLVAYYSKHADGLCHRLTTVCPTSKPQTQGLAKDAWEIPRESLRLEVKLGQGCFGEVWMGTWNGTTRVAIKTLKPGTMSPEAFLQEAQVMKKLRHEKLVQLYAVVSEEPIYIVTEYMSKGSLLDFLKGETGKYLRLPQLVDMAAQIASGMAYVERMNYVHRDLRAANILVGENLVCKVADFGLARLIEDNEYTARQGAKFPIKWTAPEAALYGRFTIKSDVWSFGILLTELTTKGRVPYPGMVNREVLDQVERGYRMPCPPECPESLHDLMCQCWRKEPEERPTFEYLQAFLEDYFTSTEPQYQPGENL

In general, Cmax refers to the highest concentration seen after dosing. A word on the Kd: it is the free concentration of one partner at which half of the binding sites on the other are occupied at equilibrium, for simple one-to-one binding. What is called IC50 is the point on the concentration scale where inhibition reaches its midpoint. In general, AUC(0-t) refers to exposure summed from dosing to a finite time, without extrapolation to infinity. The low end stands for less exposure, the high end for more exposure. As a reminder, the clearance is the volume of plasma or blood freed of the substance per unit of time. Low readings indicate inefficient removal, high ones efficient removal. For the compound `Cc1ccc(-c2cn([C@H]3CC[C@@H](N)CC3)c3ncnc(N)c23)c(F)c1`, the Cmax in data set [1] came to 959 ng/mL; in data set [13] it was 68.1 ng/mL. Also, the outcome with Mus musculus [2], in the data set with Mus musculus [12] and with Mus musculus [14] was Active. In addition, the results for the Kd in data set [3] and in data set [19] were 2300 nM and 74.5 nM, respectively. Moreover, the half-life in data set [4] is 3.9 h; in data set [15], 3.62 h. Moreover, the IC50 amounted to 56 nM in data set [5], 12300 nM in data set [6], 862 nM in [7] and 15 nM in data set [8]. Moreover, the concentration at 8 h in data set [9] came to 9140 ng/g. In addition, the concentration at 0.5 h in data set [10] is 3620 ng/g. Further, the AUC(0-t) at 48 h in data set [11] is 1000 ng·h/mL; in [18], 151 ng·h/mL. In addition, in the data set with BMDM, the Activity entry is “Non-Toxic”. The clearance in [16] was 166 mL/min/kg. In data set [17], this compound returned a Vd of 333.24 L/kg.
